Consider 14 compounds from patent US8163909B2, “Substituted hydroxyethyl amine compounds as beta-secretase modulators and methods of use” (Amgen Inc., priority 2007, dated 2012).

Like-named read-outs stand apart in the source and are kept apart here.

Experiment [1] addresses Beta Secretase enzyme (BACE) (Homo sapiens, UniProt P56817). The experiment can be described thus: In vitro enzymatic BACE FRET (fluorescence resonance energy transfer) assay.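 Note: fluorescence read after 1 h with 50 nM quenched peptide substrate spanning the BACE cleavage site, in pH 4.2 acetate buffer containing 10% DMSO and nonionic detergent.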 Type of experiment: biochemical.
In experiment [2] the test system is Aβ40 in conditioned medium of cells stably expressing Amyloid Precursor Protein (APP). Kind of experiment: In vitro BACE cell-based assay (Aβ40 in conditioned medium, sandwich ELISA).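 Note: compounds added as a dilution series, secreted peptide quantified by europium time-resolved fluorescence readout, potency fitted from percent of control versus compound concentration.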
The mark [3] stands for this setting: BACE enzyme FRET assay, read-out: BACE1 FRET assay (IC50).
Where [4] appears, read: HEK cells, cell-based assay, read-out: HEK cell assay (IC50).
Setting [5] is: Homo sapiens, HEK293, HEK cells, cell-based assay, read-out: HEK cell assay (IC50).
[6] abbreviates: BACE enzyme assay, read-out: BACE1 FRET assay (IC50).
[7] abbreviates: Table 1, read-out: BACE1 FRET assay.
Where [8] appears, read: Homo sapiens, HEK293, Table 1, HEK cells, read-out: HEK cell assay.

Sequence of Beta Secretase enzyme (BACE) (P56817 46-501): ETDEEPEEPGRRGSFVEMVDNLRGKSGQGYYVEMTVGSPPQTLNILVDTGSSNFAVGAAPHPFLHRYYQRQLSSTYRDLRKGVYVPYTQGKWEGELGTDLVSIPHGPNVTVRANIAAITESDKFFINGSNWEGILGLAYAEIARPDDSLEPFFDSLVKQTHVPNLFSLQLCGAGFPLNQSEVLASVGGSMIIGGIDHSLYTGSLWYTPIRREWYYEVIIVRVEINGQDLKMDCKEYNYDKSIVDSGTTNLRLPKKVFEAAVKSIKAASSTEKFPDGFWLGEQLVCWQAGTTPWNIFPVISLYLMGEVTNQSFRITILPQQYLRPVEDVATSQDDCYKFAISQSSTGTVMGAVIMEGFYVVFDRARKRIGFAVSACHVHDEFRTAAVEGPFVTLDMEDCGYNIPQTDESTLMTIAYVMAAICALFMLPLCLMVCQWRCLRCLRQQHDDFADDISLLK

As for “N-((1S,2R)-1-(1,3-benzodioxol-5-ylmethyl)-3-(((1r,3R,4′S)-6′-(2,2-dimethylpropyl)-3-hydroxy-3′,4′-dihydrospiro[cyclobutane-1,2′-pyrano[2,3-c]pyridin]-4′-yl)amino)-2-hydroxypropyl)acetamide N-((1S,2R)-1-(1,3-benzodioxol-5-ylmethyl)-3-(((1s,3S,4′S)-6′-(2,2-dimethylpropyl)-3-hydroxy-3′,4′-dihydrospiro[cyclobutane-1,2′-pyrano[2,3-c]pyridin]-4′-yl)amino)-2-hydroxypropyl)acetamide [compound 264]”, the IC50 in experiment [1] (setting [3]) came to 0.0422 µM; in experiment [2] (setting [4]), 0.0688 µM.
On to `CC(=O)NC(Cc1ccc(F)cc1)C(O)CNC1CC2(CCC2)Oc2ncc(CC(C)C(F)F)cc21` [compound 198, N-((1S,2R)-3-(((4′S)-6′-((2S)-3,3-difluoro-2-methylpropyl)-3′4′-dihydrospiro[cyclobutane-1,2′-pyrano[2,3-b]pyridin]-4′-yl)amino)-1-((4-fluorophenyl)methyl)-2-hydroxypropyl)acetamide], for which the IC50 in experiment [1] (setting [3]) was found to be 0.029 µM; in experiment [2] (setting [5]) it was 0.0321 µM.
Turning to “N-((1S,2R)-1-((3-cyanophenyl)methyl)-3-(((4′S)-6′-(2,2-dimethylpropyl)-3′,4′-dihydrospiro[cyclobutane-1,2′-pyrano[2,3-b]pyridin]-4′-yl)amino)-2-hydroxypropyl)-1-cyclobutyl-4,4-dimethyl-5-oxo-3-pyrrolidinecarboxamide [compound 60]”, the IC50 in experiment [1] (setting [6]) was found to be 0.0211 µM; in experiment [2] (setting [4]), 0.0631 µM.
Consider `COCC(=O)N[C@@H](Cc1ccc2c(c1)OCO2)[C@H](O)CN[C@H]1CC2(CCC2)Oc2c1cc(CC(C)(C)C)nc2N1CCCC1` [compound 130], for which the IC50 in experiment [1] (setting [6]) turned out to be 0.0541 µM; in experiment [2] (setting [5]) it was 0.055 µM.
`COCC(=O)N[C@@H](Cc1ccc(F)c(Br)c1)[C@H](O)CN[C@H]1CC2(CCC2)Oc2ncc(CC(C)(C)C)cc21` [compound 352]: the IC50 in experiment [1] (setting [7]) is 0.00371 µM; in experiment [2] (setting [8]) it was 0.0176 µM.
As for `COC(C(=O)N[C@@H](Cc1cccc(F)c1)[C@H](O)CN[C@H]1CC2(CCC2)Oc2ncc(CC(C)(C)C)cc21)C(F)(F)F` (stereo partly shown) [compound 65], the results for the IC50 in experiment [1] (setting [6]) and in experiment [2] (setting [5]) were 0.0343 µM and 0.127 µM, respectively.
In the case of `COC(OC)C(=O)N[C@@H](Cc1cccc(C(N)=O)c1)[C@H](O)CN[C@H]1CC2(CCC2)Oc2ncc(CC(C)(C)F)cc21` [compound 864], the IC50 in experiment [1] (BACE enzyme assay, IC50's in uM, read-out: BACE1 FRET assay) came out at 0.04 µM; in experiment [2] (Homo sapiens, HEK293, cell-based assay, HEK cells, IC50's in uM, read-out: HEK cell assay), 0.117 µM.
Consider `CC(C)(C)Cc1cnc2c(c1)[C@@H](NC[C@@H](O)[C@H](Cc1ccc(F)cc1)NC(=O)[C@@H](O)C(F)(F)F)CC1(CCC1)O2` [compound 69], for which the IC50 in experiment [1] (setting [6]) is 0.0336 µM; in experiment [2] (setting [5]), 0.0784 µM.
As to `COCC(=O)N[C@@H](Cc1cccc(F)c1)[C@H](O)CN[C@H]1CC2(CCC2)Oc2ncc(C[C@@H](C)C(F)(F)F)cc21` [compound 326], the IC50 worked out at 0.00777 µM in experiment [1] (setting [7]) and 0.0271 µM in experiment [2] (setting [8]).
As for `CCOCC(=O)N[C@@H](Cc1ccc(F)cc1)[C@H](O)CN[C@H]1CC2(CCC2)Oc2ncc(CC(C)(C)C)cc21` [compound 655], the IC50 in experiment [1] (read-out: BACE1 FRET assay (IC50)) worked out at 0.013 µM; in experiment [2] (Homo sapiens, HEK293, HEK cells, read-out: HEK cell assay (IC50)) it was 0.043 µM.
For the compound `COCC(=O)N[C@@H](Cc1ccc2c(c1)OCO2)[C@H](O)CN[C@H]1CC2(CCC2)Oc2cnc(C(F)(F)F)cc21` [compound 266], the IC50 in experiment [1] (setting [3]) was determined as 7.47 µM; in experiment [2] (setting [5]), 1.25 µM.
Take `CO[C@H](C)C(=O)N[C@@H](Cc1ccc(F)cc1)[C@H](O)CN[C@H]1CC2(CCC2)Oc2ncc(CC(C)C)cc21` [compound 333]: the IC50 in experiment [1] (setting [7]) came out at 0.029 µM; in experiment [2] (setting [8]) it was 0.0479 µM.
As for `CO[C@H](C)C(=O)N[C@@H](Cc1ccc(F)cc1)[C@H](O)CN[C@H]1CC2(CCC2)Oc2ncc(CC(C)(C)C(F)(F)F)cc21` [compound 75], the figures for the IC50 in experiment [1] (setting [6]) and in experiment [2] (setting [5]) were 0.00668 µM and 0.0199 µM, respectively.
For the compound `CC(C)(C)Cc1cnc2c(c1)[C@@H](NC[C@@H](O)[C@H](Cc1cc(F)cc(F)c1)NC(=O)COCc1cncs1)CC1(CCC1)O2` [compound 94], the IC50 in experiment [1] (setting [6]) stood at 0.003 µM; in experiment [2] (setting [5]), 0.0171 µM.
